# In patent US10829520B2, “Beta-hairpin peptidomimetics” (POLYPHOR AG, priority 2015, dated 2020):
# Where a SMILES comes first, the peptide text is derived from it. Bridges are numbered along the chain shown (N, C = ends). Roman numbers before positions name the chains, in order. [ ]: non-standard residue; d: D form. NMeDab = CN[C@@H](CCN)C(=O)O; Tle = CC(C)(C)[C@H](N)C(=O)O; dDab = NCC[C@@H](N)C(=O)O; hSer = N[C@@H](CCO)C(=O)O; Nle = CCCC[C@H](N)C(=O)O; Dab = NCC[C@H](N)C(=O)O; dAze = O=C(O)[C@H]1CCN1; Dap = NC[C@H](N)C(=O)O
# How the values were obtained:
# Type in all cases: cell-based
# [1] = tested on: Pseudomonas aeruginosa ATCC 27853; conditions: ATCC 27853
# Summary of the method: (§1)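 Antibacterial activity is measured as MIC (μg/mL) by standard CLSI microdilution. Inocula of about 10^6 CFU/mL in MH-II broth meet two-fold peptide dilutions in medium with 0.002% Polysorbate 80, and growth is scored visually after 18-20 hours at 35° C.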
# [2] = tested on: Escherichia coli ATCC 25922; conditions: ATCC 25922
# Summary of the method: as §1
# Escherichia coli 926415 = conditions: 926415
# [3] = tested on: Klebsiella pneumoniae 968733; conditions: 968733
# [4] = tested on: Acinetobacter baumannii 872842; conditions: 872842
# [5] = tested on: Acinetobacter baumannii DSM 30008; conditions: DSM 30008
# Summary of the method: as §1
# [6] = tested on: Klebsiella pneumoniae SSI #3010; conditions: SSI #3010
# Summary of the method: as §1
# [7] = tested on: human red blood cells (hRBC); experiment: Hemolysis of human red blood cells; conditions: red cells of human, 1 h
# Summary of the method: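 Percent hemolysis = OD540 of peptide-treated supernatant relative to the 2.5% Triton X-100 (100%) control, PBS containing 0.001% acetic acid defining 0%. Peptides tested at 100 μg/mL against 20% (v/v) washed human RBC, 1 h, 37 °C, 300 rpm.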
SMILES,Pseudomonas aeruginosa ATCC 27853 MIC [1],Escherichia coli ATCC 25922 MIC [2],Escherichia coli 926415 MIC (Escherichia coli 926415),Klebsiella pneumoniae 968733 MIC [3],Acinetobacter baumannii 872842 MIC [4],Acinetobacter baumannii DSM 30008 MIC [5],Klebsiella pneumoniae SSI #3010 MIC [6],Hemolysis at 100 μg/mL ([7]; 100 μg/mL),Hemolysis at 100 μg/mL [7]; 100
CCCC[C@@H]1NC(=O)[C@@H]2CCCN2C(=O)[C@H]2CCCN2C(=O)[C@H](CO)NC(=O)[C@H](CO)NC(=O)[C@H](C(C)(C)C)NC(=O)[C@@H](NC(=O)[C@@H](N)Cc2c[nH]c3ccccc23)CSSC[C@@H](C(=O)N[C@@H](C(=O)N[C@@H](CCN)C(=O)N[C@H](CCN)C(=O)N[C@H]2CCNC(=O)[C@H]([C@@H](C)O)NC(=O)[C@H](CCN)NC(=O)[C@H](CCN)NC(=O)[C@H](CC(C)C)NC(=O)[C@@H](Cc3ccccc3)NC(=O)[C@H](CCN)NC2=O)[C@H](C)O)NC(=O)[C@H](Cc2ccc(O)cc2)NC(=O)[C@H](CO)NC1=O [Ex. 107] (H-WC[Tle]SS[dP]P[Nle]SYC[dT][Dab][dDab][Dab][Dab][dF]L[Dab][Dab]T; disulfide 2-11; lactam 15-C),0.25 µg/mL,0.125 µg/mL,0.125 µg/mL,0.5 µg/mL,0.125 µg/mL,0.0625 µg/mL,0.5 µg/mL,0.3%,–
CCCC[C@@H]1NC(=O)[C@@H]2CCCN2C(=O)[C@H]2CCCN2C(=O)[C@H](CO)NC(=O)[C@H](C)NC(=O)[C@H](C(C)(C)C)NC(=O)[C@@H](NC(=O)[C@H](Cc2c[nH]c3ccccc23)NC(C)=O)CSSC[C@@H](C(=O)N[C@H](C)C(=O)N[C@@H](CCN)C(=O)N[C@H](C(=O)N[C@@H](CCN)C(=O)N[C@H]2CCNC(=O)[C@H]([C@@H](C)O)NC(=O)[C@H](CCN)NC(=O)[C@H](CCN)NC(=O)[C@H](CC(C)C)NC(=O)[C@@H](Cc3ccccc3)NC(=O)[C@H](CCN)NC2=O)[C@@H](C)O)NC(=O)[C@H](Cc2ccc(O)cc2)NC(=O)[C@H](CO)NC1=O [Ex. 29] (Ac-WC[Tle]AS[dP]P[Nle]SYC[dA][Dab]T[Dab][Dab][Dab][dF]L[Dab][Dab]T; disulfide 2-11; lactam 16-C),0.5 µg/mL,0.125 µg/mL,1 µg/mL,1 µg/mL,0.25 µg/mL,0.25 µg/mL,0.25 µg/mL,<1%,–
CCCC[C@@H]1NC(=O)[C@@H]2CCCN2C(=O)[C@H]2CCCN2C(=O)[C@H](CO)NC(=O)[C@H](C)NC(=O)[C@H](C(C)(C)C)NC(=O)[C@H](CCN)NC(=O)[C@H](Cc2c[nH]c3ccccc23)NC(=O)[C@H](CCN)NC(=O)[C@@H](CCN)NC(=O)[C@H](CCC(=O)N[C@@H](CCN)C(=O)N[C@H](C(=O)N[C@@H](CCN)C(=O)N[C@H]2CCNC(=O)[C@H]([C@@H](C)O)NC(=O)[C@H](CCN)NC(=O)[C@H](CCN)NC(=O)[C@H](CC(C)C)NC(=O)[C@@H](Cc3ccccc3)NC(=O)[C@H](CCN)NC2=O)[C@@H](C)O)NC(=O)[C@H](CCN)NC(=O)[C@H](Cc2ccc(O)cc2)NC(=O)[C@H](CO)NC1=O [Ex. 7] (I: cyclo(W[Dab][Tle]AS[dP]P[Nle]SY[Dab]E[dDab][Dab]) / II: [Dab]T[Dab][Dab][Dab][dF]L[Dab][Dab]T; amide I:12-II:N; lactam II:4-II:C),0.25 µg/mL,0.125 µg/mL,0.25 µg/mL,2 µg/mL,1 µg/mL,1 µg/mL,0.25 µg/mL,–,1%
CC(C)C[C@@H]1NC(=O)[C@@H](CC(C)C)NC(=O)[C@H](CCN)NC(=O)[C@@H](NC(=O)[C@H](CCN)NC(=O)[C@@H](NC(=O)[C@H](CCN)NC(=O)CC[C@@H]2NC(=O)[C@H](CCO)NC(=O)[C@H](Cc3ccc(O)cc3)NC(=O)[C@H]([C@@H](C)O)NC(=O)[C@H](C(C)C)NC(=O)[C@@H]3CCCN3C(=O)[C@@H](C)NC(=O)[C@H](CO)NC(=O)[C@H](C)NC(=O)[C@H](C(C)(C)C)NC(=O)[C@H](CCO)NC(=O)[C@H](Cc3c[nH]c4ccccc34)NC(=O)[C@H](CCO)NC(=O)[C@@H](CCN)NC2=O)[C@@H](C)O)CCNC(=O)[C@H]([C@@H](C)O)NC(=O)[C@H](CCN)NC(=O)[C@H](CCN)NC1=O [Ex. 102] (I: cyclo(AS[dA]PVTY[hSer]E[dDab][hSer]W[hSer][Tle]) / II: [Dab]T[Dab][Dab][Dab][dL]L[Dab][Dab]T; amide I:9-II:N; lactam II:4-II:C),0.125 µg/mL,0.0625 µg/mL,0.25 µg/mL,0.5 µg/mL,0.5 µg/mL,0.0625 µg/mL,0.125 µg/mL,–,<1%
CC(C)C[C@@H]1NC(=O)[C@@H](CC(C)C)NC(=O)[C@H](CCN)NC(=O)[C@@H](NC(=O)[C@H](CCN)NC(=O)[C@@H](NC(=O)[C@H](CCN)N(C)C(=O)CC[C@@H]2NC(=O)[C@H](CCN)NC(=O)[C@H](Cc3ccc(O)cc3)NC(=O)[C@H](CO)NC(=O)[C@H](CC(C)C)NC(=O)[C@@H]3CCCN3C(=O)[C@H]3CCCN3C(=O)[C@H](CO)NC(=O)[C@H]([C@@H](C)O)NC(=O)[C@H](C(C)C)NC(=O)[C@H](CCN)NC(=O)[C@H](Cc3c[nH]c4ccccc34)NC(=O)[C@H](CCN)NC(=O)[C@@H](CCN)NC2=O)[C@@H](C)O)CCNC(=O)[C@H]([C@@H](C)O)NC(=O)[C@H](CCN)NC(=O)[C@H](CCN)NC1=O [Ex. 89] (I: cyclo(LSY[Dab]E[dDab][Dab]W[Dab]VTS[dP]P) / II: [NMeDab]T[Dab][Dab][Dab][dL]L[Dab][Dab]T; amide I:5-II:N; lactam II:4-II:C),0.25 µg/mL,0.125 µg/mL,1 µg/mL,0.5 µg/mL,1 µg/mL,0.125 µg/mL,0.25 µg/mL,–,1%
CC(C)C[C@@H]1NC(=O)[C@@H](CC(C)C)NC(=O)[C@H](CCN)NC(=O)[C@@H](NC(=O)[C@H](CCN)NC(=O)[C@@H](NC(=O)[C@H](CCN)NC(=O)CC[C@@H]2NC(=O)[C@H](CCN)NC(=O)[C@H](Cc3ccc(O)cc3)NC(=O)[C@H](CN)NC(=O)[C@H](C(C)C)NC(=O)[C@@H]3CCCN3C(=O)[C@H]3CCCN3C(=O)[C@H](CO)NC(=O)[C@H](C)NC(=O)[C@H](C(C)C)NC(=O)[C@H](CCN)NC(=O)[C@H](Cc3c[nH]c4ccccc34)NC(=O)[C@H](CCN)NC(=O)[C@@H](CCN)NC2=O)[C@@H](C)O)CCNC(=O)[C@H]([C@@H](C)O)NC(=O)[C@H](CCN)NC(=O)[C@H](CCN)NC1=O [Ex. 85] (I: cyclo(V[Dap]Y[Dab]E[dDab][Dab]W[Dab]VAS[dP]P) / II: [Dab]T[Dab][Dab][Dab][dL]L[Dab][Dab]T; amide I:5-II:N; lactam II:4-II:C),1 µg/mL,1 µg/mL,2 µg/mL,8 µg/mL,1 µg/mL,1 µg/mL,2 µg/mL,–,<1%
CC(C)C[C@@H]1NC(=O)[C@@H](Cc2ccccc2)NC(=O)[C@H](CCN)NC(=O)[C@@H](NC(=O)[C@H](CCN)NC(=O)[C@@H](NC(=O)[C@H](CCN)NC(=O)CC[C@@H]2NC(=O)[C@H](CCN)NC(=O)[C@H](Cc3ccc(O)cc3)NC(=O)[C@H]([C@@H](C)O)NC(=O)[C@H](C(C)C)NC(=O)[C@@H]3CCCN3C(=O)[C@H]3CCN3C(=O)[C@H](CO)NC(=O)[C@H](C)NC(=O)[C@H](C(C)(C)C)NC(=O)[C@H](CCN)NC(=O)[C@H](Cc3c[nH]c4ccccc34)NC(=O)[C@H](CCN)NC(=O)[C@@H](CCN)NC2=O)[C@@H](C)O)CCNC(=O)[C@H]([C@@H](C)O)NC(=O)[C@H](CCN)NC(=O)[C@H](CCN)NC1=O [Ex. 80] (I: cyclo(W[Dab][Tle]AS[dAze]PVTY[Dab]E[dDab][Dab]) / II: [Dab]T[Dab][Dab][Dab][dF]L[Dab][Dab]T; amide I:12-II:N; lactam II:4-II:C),0.25 µg/mL,0.25 µg/mL,0.25 µg/mL,1 µg/mL,0.5 µg/mL,0.5 µg/mL,0.25 µg/mL,–,<1%
